Biological target: human PDE10A2 (Homo sapiens (Human), UniProt Q9Y233)
Assay: PDE10 fluorescence polarization (IMAP FP) assay
Assay type: biochemical
Conditions: inhibition of FAM-labeled cAMP hydrolysis, apparent inhibition constant
Experimental: The activity of the compounds in accordance with the present invention as PDE10 inhibitors may be readily determined without undue experimentation using a fluorescence polarization (FP) methodology well known in the art (Huang, W., et al., J. Biomol Screen, 2002, 7: 215).
In a typical experiment the PDE10 inhibitory activity of the compounds of the present invention was determined in accordance with the following experimental method. PDE10A2 was amplified from human fetal brain cDNA (Clontech, Mountain View, Calif.) using a forward primer corresponding to nucleotides 56-77 of human PDE10A2 (Accession No. AF127480, Genbank Identifier 4894716), containing a Kozak consensus sequence, and a reverse primer Corresponding to nucleotides 2406-2413 of human PDE100A2 (Accession No. AF127480, Genbank Identifier 4894716). Amplification with Easy-A polymerase (Stratagene, La Jolla, Calif.) was 95° C. for 2 minutes followed by thirty three cycles of 95° C. for 40 seconds, 55° C. for 30 seconds, and 72° C. for 2 minutes 48 seconds. Final extension was 72° C. for 7 minutes. The PCR product was TA cloned into pcDNA3.2-TOPO (Invitrogen, Carlsbad, Calif.) according to standard protocol.
AD293 cells with 70-80% confluency were transiently transfected with human PDE10A2/pcDNA3.2-TOPO using Lipofectamine 2000 according to manufacturer specifications (Invitrogen, Carlsbad, Calif.). Cells were harvested 48 hours post-transfection and lysed by sonication (setting 3, 10×5 sec pulses) in a buffer containing 20 mM HEPES, 1 mM EDTA and protease inhibitor cocktail (Roche). Lysate was collected by centrifugation at 75,000×g for 20 minutes. Supernatant containing the cytoplasmic fraction was used for evaluation of PDE100A2 activity.
The fluorescence polarization assay for cyclic nucleotide phosphodiesterases was performed using an IMAP® FP kit supplied by Molecular Devices, Sunnyvale, Calif. (product #R8139). IMAP® technology has been applied previously to phosphodiesterase assays (Huang, W., et al., J. Biomol Screen, 2002, 7: 215). Assays were performed at room temperature in 384-well microtiter plates with an incubation volume of 20.2 μL. Solutions of test compounds were prepared in DMSO and serially diluted with DMSO to yield 8 μL of each of 10 solutions differing by 3-fold in concentration, at 32 serial dilutions per plate. 100% inhibition is determined using a known PDE10 inhibitor, which can be any compound that is present at 5,000 times its Ki value in the assay described as follows, such as papaverine (see Siuciak, et al. Neuropharmacology (2006) 51:386-396; Becker, et al. Behav Brain Res (2008) 186(2):155-60; Threlfell, et al., J Pharmacol Exp Ther (2009) 328(3):785-795), 2-{4-[pyridin-4-yl-1-(2,2,2-trifluoroethyl)-1H-pyrazol-3-yl]phenoxymethyl}quinoline succinic acid or 2-[4-(1-methyl-4-pyridin-4-yl-1H-pyrazol-3-yl)-phenoxymethyl]quinoline succinic acid (see Schmidt, et al. J Pharmacol Exp Ther (2008) 325:681-690; Threlfell, et al., J Pharmacol Exp Ther (2009) 328(3): 785-795). 0% of inhibition is determined by using DMSO (1% final concentrations).
A Labcyte Echo 555 (Labcyte, Sunnyvale, Calif.) is used to dispense […] from each well of the titration plate to the 384 well assay plate. A solution of enzyme (1/1600 dilution from aliquots; sufficient to produce 20% substrate conversion) and a separate solution of FAM-labeled cAMP PDE from Molecular Devices (product #R7506), at a final concentration of 50 nM are made in the assay buffer (10 mM Tris HCl, pH 7.2, 10 mM MgCl2, 0.05% NaN3 0.01% Tween-20, and 1 mM DTT). The enzyme and the substrate are then added to the assay plates in two consecutive additions of 10 μL, and then shaken to mix. The reaction is allowed to proceed at room temperature for 30 minutes. A binding solution is then made from the kit components, comprised of 80% Solution A, 20% Solution B and binding reagent at a volume of 1/600 the total binding solution. […]

Sequence of human PDE10A2 (Q9Y233 267-1055): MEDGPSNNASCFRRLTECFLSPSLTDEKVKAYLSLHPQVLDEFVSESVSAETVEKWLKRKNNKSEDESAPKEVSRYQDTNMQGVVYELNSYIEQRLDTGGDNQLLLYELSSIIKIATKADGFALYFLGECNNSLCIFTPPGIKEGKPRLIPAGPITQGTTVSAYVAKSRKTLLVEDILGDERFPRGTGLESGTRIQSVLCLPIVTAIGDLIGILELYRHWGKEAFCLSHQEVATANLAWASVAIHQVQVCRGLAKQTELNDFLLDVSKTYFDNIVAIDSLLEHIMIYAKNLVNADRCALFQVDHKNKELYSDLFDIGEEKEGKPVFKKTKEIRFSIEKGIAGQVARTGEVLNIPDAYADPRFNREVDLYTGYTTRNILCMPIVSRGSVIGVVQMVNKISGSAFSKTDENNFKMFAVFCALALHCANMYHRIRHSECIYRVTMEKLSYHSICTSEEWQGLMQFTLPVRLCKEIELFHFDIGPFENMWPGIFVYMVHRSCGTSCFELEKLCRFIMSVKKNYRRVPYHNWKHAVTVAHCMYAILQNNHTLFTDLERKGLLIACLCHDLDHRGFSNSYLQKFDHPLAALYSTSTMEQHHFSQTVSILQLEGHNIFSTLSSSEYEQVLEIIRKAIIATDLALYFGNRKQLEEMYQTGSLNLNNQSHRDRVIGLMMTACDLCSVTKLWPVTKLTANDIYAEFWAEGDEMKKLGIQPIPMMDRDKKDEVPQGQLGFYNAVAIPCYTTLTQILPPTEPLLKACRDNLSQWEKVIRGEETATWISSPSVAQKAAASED

Ki [nM] | Compound
1.8 | COc1ccc(-n2c(CCN3C(=O)c4cccc(-c5ncco5)c4C3=O)nc3ccccc3c2=O)cc1 [C-2, 2-{2-[3-(4-methoxyphenyl)-4-oxo-3,4-dihydroquinazolin-2-yl]ethyl}-4-(1,3-oxazol-2-yl)-1H-isoindole-1,3(2H)-dione]
0.024 | Cc1ccc2c(=O)n(-c3ccc4cnn(C)c4c3)c(CCN3C(=O)c4cccc(OC(C)C)c4C3=O)nc2c1 [G-2, 2-{2-[7-methyl-3-(1-methyl-1H-indazol-6-yl)-4-oxo-3,4-dihydroquinazolin-2-yl]ethyl}-4-(propan-2-yloxy)-1H-isoindole-1,3(2H)-dione]

Second part, the compound before the results:

Compound | Ki [nM]
COc1ccc(-n2c(CCN3C(=O)c4cccc(-c5ccncc5)c4C3=O)nc3ccccc3c2=O)cc1 [1-16, 2-{2-[3-(4-methoxyphenyl)-4-oxo-3,4-dihydroquinazolin-2-yl]ethyl}-4-pyridin-4-yl-1H-isoindole-1,3(2H)-dione] | 0.073
Cc1ccc(-n2c(CCN3C(=O)c4ccccc4C3=O)nc3cc(Cl)ccc3c2=O)cc1 [1-3, 2-{2-[7-chloro-3-(4-methylphenyl)-4-oxo-3,4-dihydroquinazolin-2-yl]ethyl}-1H-isoindole-1,3(2H)-dione] | 77
COc1ccc(-n2c(CCN3C(=O)c4cccc(OC(C)C)c4C3=O)nc3ncccc3c2=O)cc1 [1-11, 4-isopropoxy-2-{2-[3-(4-methoxyphenyl)-4-oxo-3,4-dihydropyrido[2,3-d]pyrimidin-2-yl]ethyl}-1H-isoindole-1,3(2H)-dione] | 0.56
CC(C)Oc1cccc2c1C(=O)N(CCc1nc3ccccc3c(=O)n1C1CCCCC1)C2=O [1-25, 2-[2-(3-cyclohexyl-4-oxo-3,4-dihyroquinazolin-2-yl)ethyl]-4-(propan-2-yloxy)-1H-isoindole-1,3(2H)-dione] | 11
COc1ccc2c(=O)n(-c3cccc(C)c3)c(CCN3C(=O)c4cccc(OC)c4C3=O)nc2c1 [1-7, 4-methoxy-2-{2-[7-methoxy-3-(3-methylphenyl)-4-oxo-3,4-dihydroquinazolin-2-yl]ethyl}-1H-isoindole-1,3(2H)-dione] | 0.7
COc1ccc2c(=O)n(-c3ccc4cc[nH]c4c3)c(CCN3C(=O)c4cccc(OC(C)C)c4C3=O)nc2c1 [1-13, 2-{2-[3-(1H-indol-6-yl)-7-methoxy-4-oxo-3,4-dihydroquinazolin-2-yl]ethyl}-4-isopropoxy-1H-isoindole-1,3(2H)-dione] | 0.055
